# Test results reported in patent US7884136B2, “Modified-release formulations of a bupropion salt” (Biovail Laboratories International S.R.L., priority 2005, dated 2011).
# Assay: Shelf life stability program of bupropion HBr, 25° C./60% RH, 3 and 6 months, HPLC
# Format: physicochemical
# Conditions: 25° C., R.H. 60%; for Chromatographic purity B) (HPLC) 4) 2-N-(tert-Butyl)-aminopropiophenone / Chromatographic purity B) (HPLC) 5) single unknown impurity (each): LOQ 0.02%, LOD 0.002%; for Chromatographic purity A) (HPLC) 1) 3′-Chloropropiophenone / Chromatographic purity A) (HPLC) 3) 3′-Chlorobenzoic acid / Chromatographic purity A) (HPLC) 2) 3′-Chloro-2-bromopropiophenone: LOQ 0.05%; for Chromatographic purity A) (HPLC) 1) 3′-Chloropropiophenone / Chromatographic purity A) (HPLC) 3) 3′-Chlorobenzoic acid: LOD 0.01%; for Chromatographic purity A) (HPLC) 2) 3′-Chloro-2-bromopropiophenone: LOD 0.04%
# Description: The stability of bupropion HBr was studied over a longer term under conditions meant to approximate standard storage or shelf conditions. Samples were prepared in closed containers and subjected to long-term storage at 25° C.+2° C. and 60%+5% RH in a stability chamber. The samples were analyzed by HPLC prior to being placed in the stability chamber (time 0) and after 3 months and 6 months. The amounts of the main degradation products present at time 0 were compared with the amounts present at 3 months and 6 months. As shown in Table 77-79 three different batches of bupropion HBr were tested. As in Example 10 each sample was tested under two HPLC assay conditions to identify 6 impurities or groups of impurities as described in Example 10.
structure (smiles),measurement,setting,value
Br.CC(NC(C)(C)C)C(=O)c1cccc(Cl)c1 (stereo not drawn) [Bupropion•HBr],Assay (HPLC),"Batch D00894, 3 months",99.4 % on d.b.
same,Chromatographic purity (HPLC: A + B) Total impurities,"Batch D00894, 3 months",0.1%
same,Chromatographic purity B) (HPLC) 6) total unknown impurities,"Batch D00894, 3 months",6) 0.05%
same,Description (white or almost white crystalline powder),"Batch D00894, 3 months",conform
same,"Identification IR, HPLC","Batch D00894, 3 months",positive
same,Water content (K.F.),"Batch D00894, 3 months",0.05%
same,Chromatographic purity B) (HPLC) 4) 2-N-(tert-Butyl)-aminopropiophenone,"Batch D00894, 3 months",4) 0.03%
same,Chromatographic purity B) (HPLC) 5) single unknown impurity (each),"Batch D00894, 3 months",5) 0.04%
same,Chromatographic purity A) (HPLC) 1) 3′-Chloropropiophenone,"Batch D00894, 3 months",1) n.q.
same,Chromatographic purity A) (HPLC) 3) 3′-Chlorobenzoic acid,"Batch D00894, 3 months",3) n.q.
same,Chromatographic purity A) (HPLC) 2) 3′-Chloro-2-bromopropiophenone,"Batch D00894, 3 months",2) n.d.
same,Assay (HPLC),"Batch D00894, 6 months",100.2 % on d.b.
same,Chromatographic purity (HPLC: A + B) Total impurities,"Batch D00894, 6 months",0.1%
same,Chromatographic purity B) (HPLC) 6) total unknown impurities,"Batch D00894, 6 months",6) 0.02%
same,Description (white or almost white crystalline powder),"Batch D00894, 6 months",conform
same,"Identification IR, HPLC","Batch D00894, 6 months",positive
same,Water content (K.F.),"Batch D00894, 6 months",0.06%
same,Chromatographic purity B) (HPLC) 4) 2-N-(tert-Butyl)-aminopropiophenone,"Batch D00894, 6 months",4) 0.05%
same,Chromatographic purity B) (HPLC) 5) single unknown impurity (each),"Batch D00894, 6 months",5) n.q.
same,Chromatographic purity A) (HPLC) 1) 3′-Chloropropiophenone,"Batch D00894, 6 months",1) 0.05%
same,Chromatographic purity A) (HPLC) 3) 3′-Chlorobenzoic acid,"Batch D00894, 6 months",3) n.q.
same,Chromatographic purity A) (HPLC) 2) 3′-Chloro-2-bromopropiophenone,"Batch D00894, 6 months",2) n.d.
same,Assay (HPLC),"Batch D00894, 9 months",99.5 % on d.b.
same,Chromatographic purity (HPLC: A + B) Total impurities,"Batch D00894, 9 months",n.q.
same,Chromatographic purity B) (HPLC) 6) total unknown impurities,"Batch D00894, 9 months",6) n.q.
same,Description (white or almost white crystalline powder),"Batch D00894, 9 months",conform
same,"Identification IR, HPLC","Batch D00894, 9 months",positive
same,Water content (K.F.),"Batch D00894, 9 months",0.05%
same,Chromatographic purity B) (HPLC) 4) 2-N-(tert-Butyl)-aminopropiophenone,"Batch D00894, 9 months",4) n.d.
same,Chromatographic purity B) (HPLC) 5) single unknown impurity (each),"Batch D00894, 9 months",5) n.q.
same,Chromatographic purity A) (HPLC) 1) 3′-Chloropropiophenone,"Batch D00894, 9 months",1) n.q.
same,Chromatographic purity A) (HPLC) 3) 3′-Chlorobenzoic acid,"Batch D00894, 9 months",3) n.q.
same,Chromatographic purity A) (HPLC) 2) 3′-Chloro-2-bromopropiophenone,"Batch D00894, 9 months",2) n.d.
same,Assay (HPLC),"Batch D00894, 12 months",99.6 % on d.b.
same,Chromatographic purity (HPLC: A + B) Total impurities,"Batch D00894, 12 months",0.2%
same,Chromatographic purity B) (HPLC) 6) total unknown impurities,"Batch D00894, 12 months",6) 0.07%
same,Description (white or almost white crystalline powder),"Batch D00894, 12 months",conform
same,"Identification IR, HPLC","Batch D00894, 12 months",positive
same,Water content (K.F.),"Batch D00894, 12 months",0.05%
same,Chromatographic purity B) (HPLC) 4) 2-N-(tert-Butyl)-aminopropiophenone,"Batch D00894, 12 months",4) 0.05%
same,Chromatographic purity B) (HPLC) 5) single unknown impurity (each),"Batch D00894, 12 months",5) 0.05%
same,Chromatographic purity A) (HPLC) 1) 3′-Chloropropiophenone,"Batch D00894, 12 months",1) n.d.
same,Chromatographic purity A) (HPLC) 3) 3′-Chlorobenzoic acid,"Batch D00894, 12 months",3) 0.05%
same,Chromatographic purity A) (HPLC) 2) 3′-Chloro-2-bromopropiophenone,"Batch D00894, 12 months",2) n.d.
same,Assay (HPLC),"Batch D00894, time 0",99.6 % on d.b.
same,Chromatographic purity (HPLC: A + B) Total impurities,"Batch D00894, time 0",0.1%
same,Chromatographic purity B) (HPLC) 6) total unknown impurities,"Batch D00894, time 0",6) 0.04%
same,Description (white or almost white crystalline powder),"Batch D00894, time 0",conform
same,"Identification IR, HPLC","Batch D00894, time 0",positive
same,Water content (K.F.),"Batch D00894, time 0",0.05%
same,Chromatographic purity B) (HPLC) 4) 2-N-(tert-Butyl)-aminopropiophenone,"Batch D00894, time 0",4) 0.04%
same,Chromatographic purity B) (HPLC) 5) single unknown impurity (each),"Batch D00894, time 0",5) 0.04%
same,Chromatographic purity A) (HPLC) 1) 3′-Chloropropiophenone,"Batch D00894, time 0",1) n.d.
same,Chromatographic purity A) (HPLC) 3) 3′-Chlorobenzoic acid,"Batch D00894, time 0",3) n.q.
same,Chromatographic purity A) (HPLC) 2) 3′-Chloro-2-bromopropiophenone,"Batch D00894, time 0",2) n.d.
same,Assay (HPLC),"Batch D00895, 3 months",99.5 % on d.b.
same,Chromatographic purity (HPLC: A + B) Total impurities,"Batch D00895, 3 months",0.1%
same,Chromatographic purity B) (HPLC) 6) total unknown impurities,"Batch D00895, 3 months",6) 0.05%
same,Description (white or almost white crystalline powder),"Batch D00895, 3 months",conform
same,"Identification IR, HPLC","Batch D00895, 3 months",positive
same,Water content (K.F.),"Batch D00895, 3 months",0.04%
same,Chromatographic purity B) (HPLC) 4) 2-N-(tert-Butyl)-aminopropiophenone,"Batch D00895, 3 months",4) 0.03%
same,Chromatographic purity B) (HPLC) 5) single unknown impurity (each),"Batch D00895, 3 months",5) 0.04%
same,Chromatographic purity A) (HPLC) 1) 3′-Chloropropiophenone,"Batch D00895, 3 months",1) n.q.
same,Chromatographic purity A) (HPLC) 3) 3′-Chlorobenzoic acid,"Batch D00895, 3 months",3) n.q.
same,Chromatographic purity A) (HPLC) 2) 3′-Chloro-2-bromopropiophenone,"Batch D00895, 3 months",2) n.d.
